Measured values from ChEMBL document CHEMBL5050859, “Gpx4 inhibitors, pharmaceutical compositions thereof, and their use for treating gpx4-mediated diseases” (2021).

What follows are compounds tested on Huh-7 (assay: Antiproliferative activity against human Huh-7 cells after 24 hrs by Cell Titer Glo assay). Settings: Huh-7, 24 h.
Type: functional, cell-based

SMILES	EC50 [nM]
C#CC(=O)N(c1cccc(Cl)c1)C(C(=O)NCc1ccccc1)c1cccc(OCC(=O)OC)c1 (centres undefined)	100
C#CC(=O)N(c1ccc2[nH]ncc2c1)C1(C(=O)NCc2ccccc2)CCOCC1	100
C#CC(=O)N(c1cccc(NC(C)=O)c1)C(C(=O)NCc1ccccc1)c1ccc(N)cc1 (centres undefined)	2000
C#CC(=O)N(c1ccc2ncsc2c1)C(C(=O)NCc1ccccc1)c1ccccc1 (centres undefined)	100
C#CC(=O)N(c1cccc(O)c1)C(C(=O)NCc1ccccc1)c1ccc(N)cc1 (centres undefined)	2000
O=C(C#CCO)N(c1cccc(Cl)c1)C1(C(=O)NCc2ccccc2)CCOCC1	> 10000
CC#CC(=O)N(c1ccc2c(cnn2C)c1)C1(C(=O)NCc2ccccc2)CCCOC1 (centres undefined)	2000
C#CC(=O)N(c1cccc(-c2ccn(C)n2)c1)C1(C(=O)NCc2ccccc2)CCOCC1	100
CC#CC(=O)N(c1ccc2c(cnn2C)c1)C1(C(=O)NCc2ccccc2)CCOCC1	> 10000
CC#CC(=O)N(c1ccc(Cl)c(Cl)c1)C(C(=O)NCc1ccccc1)c1ccccc1 (centres undefined)	> 10000
C#CC(=O)N(c1ccc(NS(C)(=O)=O)cc1)C(C(=O)NCc1ccccc1)c1ccc(N)cc1 (centres undefined)	2000
C#CC(=O)N(c1ccc(O)cc1)C(C(=O)NCc1ccccc1)c1ccc(N)cc1 (centres undefined)	2000
C#CC(=O)N(c1ccc(S(N)(=O)=O)cc1)C(C(=O)NCc1ccccc1)c1ccc(N)cc1 (centres undefined)	> 10000
COc1ccc(N(C(=O)C#CCO)C(C(=O)NCCc2ccccc2)c2cccs2)cc1Cl (centres undefined)	2000
C#CC(=O)N(c1cccn2cnnc12)C(C(=O)NCc1ccccc1)c1ccccc1 (centres undefined)	100
CC#CC(=O)N(c1ccc2c(cnn2C)c1)C1(C(=O)NCc2ccccc2)CCCC(C(=O)OC)C1 (centres undefined)	> 10000
C#CC(=O)N(c1ccn2cnnc2c1)C1(C(=O)NCc2ccccc2)CCOCC1	500
C#CC(=O)N(c1cccc(Cl)c1)C(C(=O)NCc1ccccc1)C1CCC(C(=O)OC)CC1 (centres undefined)	100
C#CC(=O)N(c1cccc(N)c1)C(C(=O)NCc1ccccc1)c1ccc(N)cc1 (centres undefined)	500
C#CC(=O)N(c1cccc(-c2cc[nH]n2)c1)C1(C(=O)NCc2ccccc2)CCOCC1	100
Cn1ncc2cc(N(C(=O)C#CCO)C3(C(=O)NCc4ccccc4)CCOCC3)ccc21	> 10000
C#CC(=O)N(c1ccc(N(C)C)cc1)C1(C(=O)NCc2ccccc2)CCOCC1	100
C#CC(=O)N(c1cccc(Cl)c1F)C(C(=O)NCc1ccccc1)c1ccccc1 (centres undefined)	100

SMILES	EC50 [nM]
C#CC(=O)N(c1cccc2nonc12)C(C(=O)NCc1ccccc1)c1ccccc1 (centres undefined)	100
C#CC(=O)N(c1cccc2c1OCO2)C(C(=O)NCc1ccccc1)c1ccccc1 (centres undefined)	100
C#CC(=O)N(c1cccc(Cl)c1)C1(C(=O)NCS(=O)(=O)c2ccc(C)cc2)CCOCC1	500
C#CC(=O)N(CCc1ccccc1)C1(C(=O)NCc2ccccc2)CCCC(C(=O)OC)C1 (centres undefined)	100
O=C(C#CCO)N(c1cc(Cl)ccc1Cl)C1(C(=O)NCc2ccccc2)CCOCC1	> 10000
C#CC(=O)N(c1ccc2nncn2c1)C(C(=O)NCc1ccccc1)c1ccccc1 (centres undefined)	100
C#CC(=O)N(c1cccc(Cl)c1)C(C(=O)NCc1ccccc1)C1CC1 (centres undefined)	100
C#CC(=O)N(c1cccc(S(C)(=O)=O)c1)C(C(=O)NCc1ccccc1)c1ccccc1 (centres undefined)	100
C#CC(=O)N(c1cccc(Cl)c1)C1(C(=O)NCc2ccccc2)CCC(F)(F)CC1	≤ 100
C#CC(=O)N(c1ccc2c(cnn2C)c1)C1(C(=O)NCc2ccccc2)CCCC(=O)C1 (centres undefined)	100
C#CC(=O)N(c1ccn(C)c(=O)c1)C(C(=O)NCc1ccccc1)c1ccccc1 (centres undefined)	2000
C#CC(=O)N(c1ccc(OC)c(Cl)c1)C(C(=O)NCc1ccccc1)c1ccccc1 (centres undefined)	≤ 100
C#CC(=O)N(c1cccc(Cl)c1)C(C(=O)NCc1ccccc1)c1cccc(CCO)c1 (centres undefined)	100
C#CC(=O)N(c1cccc(Cl)c1F)C(C(=O)NCc1ccccc1)c1ccc(N)cc1 (centres undefined)	≤ 100
C#CC(=O)N(Cc1ccc(C(=O)OC)cc1)C(C)C(=O)NCc1ccccc1 (centres undefined)	100
CC#CC(=O)N(c1cccc(Cl)c1)C(C(=O)NCc1ccccc1)c1ccccc1 (centres undefined)	> 10000
C#CC(=O)N(c1cccc(Cl)c1)C(C(=O)NCc1ccccc1)C1CCOCC1 (centres undefined)	500
C#CC(=O)N(c1cccc(C#N)c1)C(C(=O)NCc1ccccc1)c1ccccc1 (centres undefined)	≤ 100
C#CC(=O)N(c1ccc2c(ccn2C)c1)C1(C(=O)NCc2ccccc2)CCOCC1	≤ 100
C#CC(=O)N(c1cccc(Cl)c1)C(C(=O)NCc1ccccc1)c1ccncc1 (centres undefined)	500
C#CC(=O)N(c1cccc(F)c1)C(C(=O)NCc1ccccc1)c1ccc(N)cc1 (centres undefined)	100
C#CC(=O)N(c1ccc(Cl)c(Cl)c1)C(C(=O)NCc1ccccc1)c1ccc(N)cc1 (centres undefined)	≤ 100
C#CC(=O)N(c1cc2c(cc1I)OCO2)C(C(=O)NCc1ccccc1)c1ccccc1 (centres undefined)	≤ 100

SMILES	EC50 [nM]
C#CC(=O)N(c1ccc2[nH]ccc2c1)C1(C(=O)NCc2ccccc2)CCOCC1	2000
C#CC(=O)N(c1ccc2c(c1)OCO2)C1(C(=O)NCc2ccccc2)CCOCC1	100
C#CC(=O)N(c1ccccc1N1CCOCC1)C1(C(=O)NCc2ccccc2)CCOCC1	≤ 100
C#CC(=O)N(c1ccc2c(cnn2C)c1)C1(C(=O)NCc2ccccc2)CCOCC1	≤ 100
C#CC(=O)N(c1ccc2c(c1)C(=O)OC2)C1(C(=O)NCc2ccccc2)CCOCC1	≤ 100
C#CC(=O)N(Cc1cc[nH]n1)C1(C(=O)NCc2ccccc2)CCOCC1	> 10000
C#CC(=O)N(c1cccc(Cl)c1)C1(C(=O)NCc2ccccc2)CCCCC1	≤ 100
C#CC(=O)N(c1ccc2scnc2c1)C1(C(=O)NCc2ccccc2)CCOCC1	100
C#CC(=O)N(c1cccc2c1CCC2=O)C(C(=O)NCc1ccccc1)c1ccccc1 (centres undefined)	≤ 100
C#CC(=O)N(c1ccc(OC)cc1)C(C(=O)NCc1ccccc1)c1ccc(N)cc1 (centres undefined)	≤ 100
C#CC(=O)N(c1cccc(C(N)=O)c1)C(C(=O)NCc1ccccc1)c1ccc(N)cc1 (centres undefined)	> 10000
C#CC(=O)N(c1ccc2c(cnn2C)c1)C(C(=O)NCc1ccccc1)c1ccccc1 (centres undefined)	≤ 100
C#CC(=O)N(c1cccc(Cl)c1Cl)C(C(=O)NCc1ccccc1)c1ccccc1 (centres undefined)	≤ 100
C#CC(=O)N(c1cccc(Cl)c1)[C@]1(C(=O)NCc2ccccc2)CC[C@@H](O)CC1	100
C#CC(=O)N(Cc1cccc(O)c1)C1(C(=O)NCc2ccccc2)CCOCC1	≤ 100
C#CC(=O)N(c1ccc2cnn(C)c2c1)C(C(=O)NCc1ccccc1)c1ccccc1 (centres undefined)	≤ 100
C#CC(=O)N(c1cc(Cl)ccc1I)C(C(=O)NCc1ccccc1)c1ccccc1 (centres undefined)	≤ 100
C#CC(=O)N(c1ccc2ncn(C)c2c1)C1(C(=O)NCc2ccccc2)CCOCC1	500
C#CC(=O)N(c1ccc2c(c1)ncn2C)C1(C(=O)NCc2ccccc2)CCOCC1	500
C#CC(=O)N(c1ccc(CO)cc1)C(C(=O)NCc1ccccc1)c1ccc(N)cc1 (centres undefined)	500
C#CC(=O)N(c1cccc(Cl)c1)C(C(=O)NCc1ccc(F)cc1)c1ccccc1 (centres undefined)	≤ 100
C#CC(=O)N(c1cccc(Cl)c1)C(C(=O)NCc1ccccc1F)c1ccccc1 (centres undefined)	100
C#CC(=O)N(C1CCC(=O)N(C)C1)C(C(=O)NCc1ccccc1)c1ccccc1 (centres undefined)	2000

The next lines start with the values.

EC50 [nM]	SMILES
≤ 100	C#CC(=O)N(C1(C(=O)NCc2ccccc2)CCOCC1)C1(c2ccccc2)CC1
≤ 100	C#CC(=O)N(c1ccc2c(cnn2C)c1)C1(C(=O)NCc2ccccc2)CCC(=O)CC1
≤ 100	C#CC(=O)N(c1cccc2cnn(C)c12)C(C(=O)NCc1ccccc1)c1ccccc1 (centres undefined)
≤ 100	C#CC(=O)N(c1cc(Cl)ccc1F)C(C(=O)NCc1ccccc1)c1ccc(N)cc1 (centres undefined)
≤ 100	C#CC(=O)N(c1cccc(Cl)c1)C(C(=O)NCc1ccccc1)c1ccccc1F (centres undefined)
≤ 100	C#CC(=O)N(c1ccc2c(c1)OC(F)(F)O2)C(C(=O)NCc1ccccc1)c1ccccc1 (centres undefined)
≤ 100	C#CC(=O)N(c1ccc(OC)cc1OC)C1(C(=O)NCc2ccccc2)CCOCC1
≤ 100	C#CC(=O)N(c1cccc(C(=O)OC)c1)C(C(=O)NCc1ccccc1)c1cccc(N)c1 (centres undefined)
≤ 100	C#CC(=O)N(c1cccc(Cl)c1)C(C(=O)NCc1ccccc1)c1cccs1 (centres undefined)
≤ 100	C#CC(=O)N(c1cccc(C(=O)OC)c1)C(C(=O)NCc1ccccc1)c1ccccc1 (centres undefined)
≤ 100	C#CC(=O)N(c1ccc2c(c1)C(=O)OC2)C(C(=O)NCc1ccccc1)c1ccccc1 (centres undefined)
≤ 100	C#CC(=O)N(c1cccc2c1OCO2)C1(C(=O)NCc2ccccc2)CCOCC1
≤ 100	C#CC(=O)N(c1cccc(OC)c1)C(C(=O)NCc1ccccc1)c1ccc(N)cc1 (centres undefined)
≤ 100	C#CC(=O)N(c1ccc2nsnc2c1)C(C(=O)NCc1ccccc1)c1ccccc1 (centres undefined)
≤ 100	C#CC(=O)N(c1ccc2scnc2c1)C(C(=O)NCc1ccccc1)c1ccccc1 (centres undefined)
≤ 100	C#CC(=O)N(c1cccc(Cl)c1)C(C(=O)NCc1ccccc1)c1ccccc1 (centres undefined)
≤ 100	C#CC(=O)N(c1cccc(C(=O)OC)c1)C(C(=O)NCc1ccccc1)c1cccs1 (centres undefined)
≤ 100	C#CC(=O)N(c1ccc(Cl)cc1)C(C(=O)NCc1ccccc1)c1cccc(N)c1 (centres undefined)
≤ 100	C#CC(=O)N(c1cccc(Cl)c1)C(C(=O)NCc1ccccc1)c1ccc(F)cc1 (centres undefined)
≤ 100	C#CC(=O)N(c1cccc2c1CCC2=O)C1(C(=O)NCc2ccccc2)CCOCC1
≤ 100	C#CC(=O)N(c1cccc2nsnc12)C1(C(=O)NCc2ccccc2)CCOCC1
≤ 100	C#CC(=O)N(c1cccc(Cl)c1)C(C(=O)NCc1ccc(C#N)cc1)c1ccccc1 (centres undefined)
≤ 100	C#CC(=O)N(c1ccc(C#N)cc1)C(C(=O)NC(C)(C)C)c1ccc(N)cc1 (centres undefined)
≤ 100	C#CC(=O)N(c1cc(Cl)ccc1Cl)C(C(=O)NCc1ccccc1)c1ccccc1 (centres undefined)
≤ 100	C#CC(=O)N(c1ccc2c(c1)OCO2)C(C(=O)NCc1ccccc1)c1ccccc1 (centres undefined)
≤ 100	C#CC(=O)N(c1ccc(C#N)cc1)C(C(=O)NCc1ccccc1)c1ccc(N)cc1 (centres undefined)
≤ 100	C#CC(=O)N(c1cccc(Cl)c1)C1(C(=O)NCc2ccccc2)CCC(C(=O)OC)CC1 (centres undefined)
≤ 100	C#CC(=O)N(c1cccc2nsnc12)C(C(=O)NCc1ccccc1)c1ccccc1 (centres undefined)
≤ 100	C#CC(=O)N(c1ccc(C(=O)OC)cc1)C(C(=O)NCc1ccccc1)c1ccc(N)cc1 (centres undefined)
≤ 100	C#CC(=O)N(c1ccc(Cl)cc1)C(C(=O)NC(C)(C)C)c1cccc(N)c1 (centres undefined)
